The target in one experiment is T1, ATeam 1.03 (Bacillus subtilis, UniProt P37812).
T1 construct: gene atpC; epsilon subunit between mseCFP and Venus
Briefly: FRET sensor titration. It is filed as binding. Particulars: read-out: C50.

The target of the next experiment is T2, ChemoG1 (eGFP-HT7) (Rhodococcus sp. (in: high G+C Gram-positive bacteria), UniProt P0A3G3, L47V/S58T/D78G/Y87F/L88M/C128F/A155T/E160K/A167V/A172T/K175M/C176G/K195N/A224E/N227D/E257K/T264A/H272N/Y273L/P291S/A292T).
T2 construct: gene dhaA; eGFP fused directly to N terminus of HaloTag7; His10 removed with TEV protease; E. coli
Briefly: X-ray crystallography, […] Å. It is filed as binding. Particulars: covalent; HaloTag labelling with chloroalkane; fluorophore at eGFP-HT7 interface.

The target of experiment [1] is HaloTag7 (HT7) E143R E147R L271E labeled with SiR, as the C-terminal part of ChemoG5 (construct for fluorescence spectroscopy). Briefly: FRET or BRET; intramolecular FRET of the purified eGFP–HT7 fusion (both partners on one chain), 200 nM protein labeled with 400 nM fluorophore–CA substrate, activity buffer (50 mM HEPES, 50 mM NaCl, pH 7.3) with 0.5 mg/ml BSA, 37 °C, plate reader.

T1 sequence (P37812 whole entry): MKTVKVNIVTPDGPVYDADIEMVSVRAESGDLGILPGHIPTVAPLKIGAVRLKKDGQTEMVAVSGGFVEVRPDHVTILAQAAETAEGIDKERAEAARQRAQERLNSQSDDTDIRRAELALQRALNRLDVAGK

For `Nc1ncnc2c1ncn2[C@@H]1O[C@H](COP(=O)(O)OP(=O)(O)OP(=O)(O)O)[C@@H](O)[C@H]1O` [ATP], the EC50 on ATeam 1.03 was 1800 µM.
For the compound `CN(C)c1ccc2c(-c3cc(C(=O)NCCOCCOCCCCCCCl)ccc3C(=O)[O-])c3ccc(=[N+](C)C)cc-3oc2c1` [TMR-CA], at ChemoG1 (eGFP-HT7), the “X-ray crystallography, 1.8 Å” value is on record as “X-ray structure of ChemoG1 labeled with the fluorophore tetramethylrhodamine”.
For “eGFP A206K T225R, as the N-terminal part of ChemoG5 (construct for fluorescence spectroscopy) (from UniProt P42212 3-238) (domain or fragment)”, the FRET efficiency in experiment [1] came to 95.8%.
